From patent US10695322B2 (priority 2016, dated 2020)

What was measured:
Experiment in all cases: biochemical
[1] = biological target: LdtMab1, wild-type (MAB_3165c, orthologue of LdtMt1) (Mycobacteroides abscessus, UniProt B1MDC1); type: binding, Mycobacterium abscessus; settings: Figure 6; ITC, wt, protein 150 μM, ligand 2 mM, pH 8.0, 24° C.
LdtMt2 = LdtMt2 (Mycobacterium tuberculosis, UniProt I6Y9J2); design: species or system M. tuberculosis; settings: 10 μM LdtMt2, MES pH 6.5, 10° C.
[2] = biological target: LdtMab2, wild-type (MAB_1530, orthologue of LdtMt2; fragment without putative transmembrane domain) (Mycobacteroides abscessus, UniProt B1MMQ4); type: binding, Mycobacterium abscessus; settings: Figure 6; ITC, wt, protein 150 μM, ligand 2 mM, pH 8.0, 24° C.
LdtMab2, wild-type (MAB_1530, orthologue of LdtMt2; fragment without putative transmembrane domain), sequence (B1MMQ4 32-406): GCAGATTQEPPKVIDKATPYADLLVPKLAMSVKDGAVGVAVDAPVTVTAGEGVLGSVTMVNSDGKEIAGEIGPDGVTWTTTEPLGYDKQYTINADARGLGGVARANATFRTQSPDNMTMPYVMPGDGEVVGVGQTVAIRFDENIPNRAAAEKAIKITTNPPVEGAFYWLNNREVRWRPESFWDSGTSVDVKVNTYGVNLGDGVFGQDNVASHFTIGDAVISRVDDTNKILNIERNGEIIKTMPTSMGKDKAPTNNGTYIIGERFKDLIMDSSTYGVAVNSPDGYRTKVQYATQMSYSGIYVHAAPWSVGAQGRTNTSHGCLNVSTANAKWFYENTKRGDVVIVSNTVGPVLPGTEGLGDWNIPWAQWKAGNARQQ

LdtMab1, wild-type (MAB_3165c, orthologue of LdtMt1), sequence (B1MDC1 21-248): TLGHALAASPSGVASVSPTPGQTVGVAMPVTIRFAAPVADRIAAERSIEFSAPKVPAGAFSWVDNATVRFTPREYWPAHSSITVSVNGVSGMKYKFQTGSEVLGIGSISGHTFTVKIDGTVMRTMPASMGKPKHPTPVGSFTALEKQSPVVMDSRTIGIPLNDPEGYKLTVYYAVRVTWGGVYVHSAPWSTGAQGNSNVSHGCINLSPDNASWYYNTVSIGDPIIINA
LdtMt2, sequence (I6Y9J2 56-408 limits assumed): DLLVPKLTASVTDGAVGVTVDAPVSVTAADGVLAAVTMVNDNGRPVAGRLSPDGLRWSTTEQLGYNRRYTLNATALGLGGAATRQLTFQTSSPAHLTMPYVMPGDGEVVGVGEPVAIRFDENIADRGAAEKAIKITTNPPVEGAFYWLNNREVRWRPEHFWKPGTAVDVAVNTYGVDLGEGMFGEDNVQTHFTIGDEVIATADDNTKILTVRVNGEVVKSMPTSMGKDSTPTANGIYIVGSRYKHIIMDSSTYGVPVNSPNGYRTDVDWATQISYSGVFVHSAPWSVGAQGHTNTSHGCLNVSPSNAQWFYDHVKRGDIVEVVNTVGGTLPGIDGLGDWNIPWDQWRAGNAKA

Question: With `C[C@@H](O)[C@H]1C(=O)N2C(C(=O)O)=C(SC3CN(C4=NCCS4)C3)[C@H](C)[C@H]12` [tebipenem] as the compound, how does the Kd [1] read?
Answer: The Kd was 0.82 µM.

Question: What about the Kapp (LdtMt2) of the same compound?
Answer: Its Kapp is 38.4 ± 9.7 µM.

Question: What about the Kd [2] of the same compound?
Answer: The Kd was 6.1 µM.
